Article PMC8876244, “Effective Synthesis and Antifouling Activity of Dolastatin 16 Derivatives” (Marine Drugs, 2022)
Converted amounts (≈) assume the structure as drawn. Read-outs that look alike come from different tables or passages of the source. Starred links: 1 amine or outer side, 2 acyl side, 3 side chain; linkers in the order of their positions; H or OH if unused. Non-standard residues stand in square brackets, D forms with d. Residues, ends and D or L forms follow the SMILES beside them. *: point of attachment. X3 = CC(=O)Oc1ccc(C[C@@H](C)[C@H](N[*:1])C(=O)[*:2])cc1; X4 = CC(C)[C@@H](N[*:1])[C@@H](C)C(=O)[*:2]; X1 = CC(Cc1ccccc1)C(N[*:1])C(=O)[*:2]; X2 = CC(C)C(N[*:1])C(C)C(=O)[*:2]; X5 = C[C@H](OCc1ccccc1)C(=O)*; dNMeV = CN[C@@H](C(=O)O)C(C)C; dHiv = CC(C)[C@@H](O)C(=O)O; Hiv = CC(C)[C@H](O)C(=O)O; Lac = C[C@H](O)C(=O)O; OBn = c1ccc(CO*)cc1

How the values were obtained:
[1] = system: cypris larvae of the barnacle Amphibalanus amphitrite; assay: Antifouling assay: inhibition of settlement of cypris larvae, 48 h exposure; assay type: in vivo; conditions: for EC50: Amphibalanus amphitrite, 48 h
Protocol: The antifouling activities of synthetic samples were evaluated as EC50 values against the cypris larvae of A. amphitrite by exposure of each compound for 48 h (Table 1, Figure 2). […] We next investigated the biological activity of the fragments.
(§1) Antifouling assay against larvae of the barnacle Amphibalanus amphitrite was conducted according to the previous literature. The adult barnacles, A. amphitrite, obtained from oyster farms in Lake Hamana and a pier of Shimizu bay, Shizuoka, were kept in an aquarium at 20 °C and were fed on Artemia salina nauplii. Broods were released as I–II stage nauplii upon immersion in seawater after drying overnight. The nauplii (1.0~3.0 indiv./mL) thus obtained were cultured in 2.0 L filtered (0.2 μm) natural seawater (diluted by DW: salinity 28) containing penicillin G (20 μg/mL) and streptomycin sulfate (30 μg/mL) at 25 °C and were fed on the diatom Chaetoceros gracillis at concentrations of 40 × 10^4 cells/mL. Larvae reached the cyprid stage in 5 days. The cyprids were collected, then stored at 4 °C until use (0-day-old).
(§2) The test compounds were dissolved in ethanol and aliquots of the solution (20 μL) were transferred to wells of a 24-well polystyrene culture plates and then air-dried for 3 h at room temperature and CuSO4 was used as positive compound. Four wells were used for each concentration (0.03, 0.1, 0.3, 1.0, 3.0, 10.0 μg/mL). To each well were added filtered ([…]) natural seawater (2.0 mL, salinity 28) and six 2-day-old cyprids. The plates were kept in the dark at 25 °C for 48 h. […] Three or four trials were carried out for each concentration. Antifouling activity (EC50) indicates the concentration reducing the larval settlement to 50% of the control (non-treatment) by Probit analysis. Toxicity of compounds were expressed as LC50 value, which indicates the concentration showing 50% mortality estimated by Probit analysis.

[2] = Antifouling assay: toxicity (mortality) to cypris larvae, 48 h exposure; conditions: Amphibalanus amphitrite (barnacle, cypris larvae), in vivo, 50% mortality of cyprids, highest concentration 10.0 μg/mL, read-out: LC50 (50% lethal concentration)
Protocol: as §1, §2

[3] = system: cypris larvae of the barnacle Amphibalanus amphitrite; conditions: previous compounds and positive control, cited from earlier work; for EC50: read-out: EC50 (μM), antifouling activity
[4] = system: larval settlement and metamorphosis of the barnacle Amphibalanus amphitrite; set-up: method as in PMID 20658384; conditions: cited from earlier work
[5] = system: barnacle Amphibalanus amphitrite; set-up: method as in PMID 20658384; conditions: cited from earlier work
[6] = system: human cancer cell lines such as NCI-H460, KM20L2 and SF-295; conditions: cited from earlier work
[7] = system: cypris larvae of the barnacle Amphibalanus amphitrite; conditions: previous compounds and positive control; cited from earlier work
[8] = larval settlement reduced to 50% of control, Probit analysis, read-out: EC50 (50% effective concentration), antifouling activity
[9] = larval settlement, read-out: EC50 (μM), antifouling activity

Structure (SMILES) | EC50 [1, 8] [µg/mL] | EC50 [1, 9] [µM] | LC50 [2] [µg/mL] | EC50 (50% effective concentration), antifouling activity [3] [µg/mL] | EC50 [3] [µM] | LC50 (50% lethal concentration) [7] [µg/mL] | further results
CC(C)[C@@H](NC(=O)[C@@H]1CCCN1C(=O)[C@@H](NC(=O)OC(C)(C)C)[C@H](C)Cc1ccccc1)[C@@H](C)C(=O)OCc1ccccc1 [Boc-3] | < 1 | 1.3 | > 10 | – | – | – | –
CC(C)C1NC(=O)[C@@H]2CCCN2C(=O)C(C(C)Cc2ccccc2)NC(=O)[C@@H]2CCCN2C(=O)[C@@H](C(C)C)N(C)C(=O)[C@@H](C(C)C)OC(=O)[C@@H]2CCCN2C(=O)[C@H](C)OC(=O)C1C (some centres unmarked) [Compound 1, Dolastatin 16] (cyclo([Lac]P[dHiv][dNMeV]P[X1]P[X2])) | – | – | – | <0.03 | < 0.03 | >10 | EC50 (50% effective concentration) [4]: 0.003 µg/mL (≈ 0.00341 µM); LC50 (50% lethal concentration) [5]: 20 µg/mL (≈ 22.8 µM); Growth inhibition of human cancer cell lines ([6]; 1 isolated from the natural sample): strong growth inhibitions; Anticancer activity of synthetic sample versus isolated compound ([6]; synthetic 1): much less potent than the isolated compound
CC(C)[C@H](OC(=O)[C@@H]1CCCN1C(=O)[C@H](C)OCc1ccccc1)C(=O)N(C)[C@@H](C(=O)N1CCC[C@H]1C(=O)O)C(C)C [Compound 2] (X5-P[Hiv][dNMeV]P-OH) | – | – | – | >10 | > 17 | >10 | –
CC(C)[C@@H](NC(=O)[C@@H]1CCCN1C(=O)[C@@H](N)[C@H](C)Cc1ccccc1)[C@@H](C)C(=O)OCc1ccccc1 [Compound 3] | – | – | – | 1.17 (≈ 2.3 µM) | 1.92 | >10 | –
CC(C)[C@@H](NC(=O)[C@@H]1CCCN1C(=O)[C@@H](NC(=O)OC(C)(C)C)[C@H](C)Cc1ccc(O)cc1)[C@@H](C)C(=O)OCc1ccccc1 [Compound 21, Boc-Dpv(OH)-Pro-Dml-OBn] | < 1 | 0.96 | > 10 | – | – | – | –
CC(C)[C@@H](NC(=O)[C@@H]1CCCN1C(=O)[C@@H](NC(=O)OC(C)(C)C)[C@H](C)Cc1ccc(OCc2ccccc2)cc1)[C@@H](C)C(=O)OCc1ccccc1 [Compound 22, Boc-Dpv(OBn)-Pro-Dml-OBn] | 4.62 | 6.47 | > 10 | – | – | – | –
CC(=O)Oc1ccc(C[C@@H](C)[C@@H]2NC(=O)[C@@H]3CCCN3C(=O)[C@@H](C(C)C)N(C)C(=O)[C@H](C(C)C)OC(=O)[C@@H]3CCCN3C(=O)[C@H](C)OC(=O)[C@H](C)[C@@H](C(C)C)NC(=O)[C@@H]3CCCN3C2=O)cc1 [Compound 24, Dolastatin 16 Acetate] (cyclo([Hiv][dNMeV]P[X3]P[X4][Lac]P)) | – | – | – | – | – | – | EC50 ([1]; read-out: EC50 (50% effective concentration), antifouling activity): 1.74 µg/mL; EC50 ([1]; read-out: EC50 (μM), antifouling activity): 1.86 µM; Antifouling activity (in words) ([1]; settlement of cypris larvae): much less potent than dolastatin 16; LC50 at 48 h [2]: > 10 µg/mL
CC(C)[C@H](OC(=O)[C@@H]1CCCN1C(=O)[C@H](C)OCc1ccccc1)C(=O)N(C)[C@@H](C(=O)N1CCC[C@H]1C(=O)OCc1ccccc1)C(C)C [Compound 25, BnO-Lac-Pro-O-Hiv-D-MeVal-Pro-OBn] (X5-P[Hiv][dNMeV]P-OBn) | < 1 | 1.32 | > 10 | – | – | – | –
CC(C)[C@H](OC(=O)[C@@H]1CCCN1C(=O)OC(C)(C)C)C(=O)N(C)[C@@H](C(=O)N1CCC[C@H]1COCc1ccccc1)C(C)C [Compound 29, Boc-Pro-O-Hiv-D-MeVal-Pro-CH2OBn] | 3.27 | 6.52 | > 10 | – | – | – | –
O=S(=O)([O-])[O-].[Cu+2] [CuSO4, reference compound] | – | – | – | 0.10 | 0.63 | >10 | –
